Reference: patent US20170197935A1, “INHIBITORS OF DNA GYRASE FOR THE TREATMENT OF BACTERIAL INFECTIONS” (Vitas Pharma Research Private Limited, priority 2012, published 2017)
In brackets after ≈: the same amount, converted by molar mass. Like-named read-outs stand apart in the source and are kept apart here.

Columns and labels:
[1] = tested on: Streptococcus pneumoniae (ATCC 6301); experiment: MIC by microbroth dilution, Streptococcus pneumoniae ATCC 6301; format: cell-based; details: ATCC6301
Method: (§1) Shown below are the microbiological activities of representative compounds of Formula I of the invention. The compounds were tested by the microbroth dilution method (National committee for Clinical Laboratory Standards, 2011, […]-08) and the Minimum Inhibitory Concentration (MIC) was determined.

[2] = tested on: MRSA E9749; experiment: MIC against FQ resistant clinical strain MRSA E9749; format: cell-based; details: Staphylococcus aureus, fluoroquinolone resistant clinical strain, read-out: MIC against FQ resistant strains, MRSA E9749
Method: (§2) Shown below are the microbiological activities of representative compounds of Formula I of the invention. The compounds were tested by the microbroth dilution method (National committee for Clinical Laboratory Standards, 2011, M07-08) and the Minimum Inhibitory Concentration (MIC) was determined.
(§3) To test if compounds are able to overcome fluoroquinolone resistance, we have determined the MICS against Fluoroquinolone (FQ) resistant clinical strains of MRSA and E. coli.

[3] = tested on: Moraxella catarrhalis (ATCC 8176); experiment: MIC by microbroth dilution, Moraxella catarrhalis ATCC 8176; format: cell-based; details: ATCC8176
Method: as §1

[4] = tested on: Enterococcus faecalis (ATCC 29212); experiment: MIC by microbroth dilution, Enterococcus faecalis ATCC 29212; format: cell-based; details: ATCC29212
Method: as §1

[5] = tested on: MRSA E9823; experiment: MIC against FQ resistant clinical strain MRSA E9823; format: cell-based; details: Staphylococcus aureus, fluoroquinolone resistant clinical strain, read-out: MIC against FQ resistant strains, MRSA E9823
Method: as §2, §3

[6] = biological target: T1, E. coli Gyrase (Escherichia coli, UniProt P0AES4+P0AES6); experiment: in vitro Gyrase supercoiling assay (Inspiralis kit); format: biochemical; details: 1 hour at 37° C., read-out: % inhibition of DNA supercoiling activity; for inhibition at 0.1 µM: 0.1 μM compound; for inhibition at 1 µM: 1 μM compound
T1 construct: purchased Inspiralis
Method: To test for target specificity, the activity of compounds was evaluated in an in vitro Gyrase assay using recombinant Gyrase protein as per the instructions of the assay kit (Inspiralis). The assay measures the ability of E. coli Gyrase to convert relaxed plasmid DNA into the supercoiled form. The enzyme is incubated with the substrate (relaxed DNA) in the presence and absence of compounds for 1 hour at 37° C. and the DNA is run on a gel at low voltage for several hours. The gel is then stained with Ethidium bromide and DNA in the different forms is quantified using DNA imaging and quantification software (Image Lab). The activity of the enzyme is proportional to the amount of supercoiled form detected.

[7] = tested on: Staphylococcus aureus (ATCC 29213); experiment: MIC by microbroth dilution, Staphylococcus aureus ATCC 29213; format: cell-based; details: ATCC29213
Method: as §1

[8] = tested on: E. coli (ATCC 25922); experiment: MIC by microbroth dilution, E. coli ATCC 25922; format: cell-based; details: Escherichia coli
How it was run: (§4)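 NCCLS (M07-08) microbroth dilution method used; values are MICs.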

[9] = tested on: K. pneumoniae (ATCC 700603); experiment: MIC by microbroth dilution, K. pneumoniae ATCC 700603; format: cell-based; details: Klebsiella pneumoniae, ATCC700603, Formula I compounds
How it was run: as §4

[10] = tested on: Methicillin resistant Staphylococcus aureus (ATCC 33591); experiment: MIC by microbroth dilution, MRSA ATCC 33591; format: cell-based
How it was run: as §4

[11] = led to discontinuation from clinical development; North American Journal of Medical Science, 4, 537-47, 2012; cited from earlier work
[12] = biological target: T2, hERG (Homo sapiens, UniProt Q12809); details: BMCL, 21, 7489-7495, 2011; cited from earlier work
[13] = tested on: E. coli U5690; experiment: MIC against FQ resistant clinical strain E. coli U5690; format: cell-based; details: Escherichia coli, fluoroquinolone resistant clinical strain, read-out: MIC against FQ resistant strains, E. coli U5690
Method: (§5) The compounds were tested by the microbroth dilution method (National committee for Clinical Laboratory Standards, 2011, M07-08) and the Minimum Inhibitory Concentration (MIC) was determined.

[14] = tested on: MRSA 33591; experiment: Mutation prevention concentration against MRSA 33591; format: cell-based
Method: (§6) The mutation prevention concentration or the concentration above which mutants are unlikely to be selected, was determined based on published protocols (Antimicrobial Agents and Chemotherapy, 45, 433-438, 2001).

[15] = Single dose pharmacokinetics in male Swiss albino mice; format: in vivo
Method: (§7) Compounds were dosed to male Swiss albino mice to determine the pharmacokinetic profiles.
as §7

[16] = tested on: E. coli E1851; experiment: MIC against FQ resistant clinical strain E. coli E1851; format: cell-based; details: Escherichia coli, fluoroquinolone resistant clinical strain, read-out: MIC against FQ resistant strains, E. coli E1851
Method: as §5

[17] = tested on: E. coli U1306; experiment: MIC against FQ resistant clinical strain E. coli U1306; format: cell-based; details: Escherichia coli, fluoroquinolone resistant clinical strain, read-out: MIC against FQ resistant strains, E. coli U1306
Method: as §5

[18] = tested on: E. coli 86; experiment: MIC against FQ resistant clinical strain E. coli 86; format: cell-based; details: Escherichia coli, fluoroquinolone resistant clinical strain, read-out: MIC against FQ resistant strains, E. coli 86
Method: as §5

[19] = tested on: S. aureus (MRSA ATCC 33591); experiment: Systemic infection model in mice against S. aureus (MRSA ATCC 33591); format: in vivo; details: 10 mg/kg i.v. one hour after infection and again 4 hours later, 15× lethal dose MRSA ATCC33591 intraperitoneally
Method: In order to evaluate the in vivo efficacy of the scaffold, we tested representative compounds for activity in the systemic infection model in mice (Antimicrobial Agents and Chemotherapy, 47, 2507-2512, 2003). In this model, a 15× medial lethal dose of the bacteria (MRSA ATCC33591) is administered to mice intraperiotoneally. An hour later, the compound is administered i.v. and again 4 hours later. VT-03-00061, was efficacious with a 50% survival at a dose of 10 mg/kg in this model.

[20] = biological target: T2, hERG; experiment: biochemical
Method: To test the ability of the VT-03 compounds to bind the hERG channel, membranes expressing the hERG channel were incubated with radiolabeled Astemizole and displacement of the labeled ligand in the presence of compounds was measured.
To test the ability of the VT-03 compounds (of Formula II) to bind the hERG channel, membranes expressing the hERG channel were incubated with radiolabeled Astemizole and displacement of the labeled ligand in the presence of compounds was measured.

[21] = biological target: T3, ciprofloxacin resistant recombinant Gyrase protein (with mutation S83L) (Escherichia coli, UniProt P0AES4+P0AES6, S83L); experiment: Gyrase supercoiling assay with ciprofloxacin resistant Gyrase (S83L); format: biochemical; details: read-out: Target specificity: % inhibition of supercoiling activity
T3 construct: purchased Inspiralis
Method: The enzyme is incubated with the substrate (relaxed DNA) in the presence and absence of compounds for 1 hour at 37° C. and the DNA is run on a gel at low voltage for several hours. The amount of supercoiled DNA is quantified using DNA imaging and quantification software (Image Lab). The activity of the enzyme is proportional to the amount of supercoiled form detected.

[22] = tested on: E. faecalis ATCC 51299; experiment: MIC by microbroth dilution, E. faecalis ATCC 51299; format: cell-based; details: Enterococcus faecalis, ATCC51299, Formula II compounds, read-out: Minimum Inhibitory Concentration (MIC) E. faecalis ATCC 51299
Method: as §2
(§8) Analysis of microbiological activity of compounds shown below are the microbiological activities of representative compounds of Formula II of the invention. The compounds were tested by the microbroth dilution method as per the reference in Example 1.

[23] = tested on: Acinetobacter BAA747; experiment: MIC by microbroth dilution, Acinetobacter BAA747; format: cell-based; details: Formula II compounds, read-out: Minimum Inhibitory Concentration (MIC) Acinetobacter BAA747
Method: as §2, §8

[24] = tested on: A. baumannii; experiment: Mutation prevention concentration and mutation frequency against A. baumannii; format: cell-based
Method: as §6
The mutation prevention concentration and mutation frequencies were determined based on published protocols, the reference of which is provided in Example 4.

[25] = tested on: Pseudomonas ATCC 27853; experiment: MIC by microbroth dilution, Pseudomonas ATCC 27853; format: cell-based; details: ATCC27853, Formula II compounds, read-out: Minimum Inhibitory Concentration (MIC) Pseudomonas ATCC 27853
Method: as §2, §8

[26] = ATCC25922, Formula I compounds, read-out: MIC E. coli (ATCC 25922)
[27] = ATCC33591, Formula I compounds, read-out: MIC Methicillin resistant Staphylococcus aureus (ATCC 33591)
[28] = mouse, in vivo, intravenous, 5 mg/kg b.w., single dose
[29] = mouse, in vivo, oral, 10 mg/kg b.w., single dose

Row | SMILES | MIC [1] [µg/mL] | MIC [2] [µg/mL] | MIC [3] [µg/mL] | MIC [4] [µg/mL] | MIC [5] [µg/mL] | inhibition at 0.1 µM [6] [%] | inhibition at 1 µM [6] [%] | MIC [7] [µg/mL] | MIC [8, 26] [µg/mL] | MIC [9] [µg/mL] | MIC [10, 27] [µg/mL] | further results
1 | COc1ccc2ncc(=O)n(CCN3CCC(NCc4ccc(C)c([N+](=O)[O-])c4)CC3)c2c1 [VT-03-00062] | 0.015 (≈ 0.0332 µM) | 0.015 (≈ 0.0332 µM) | ≤ 0.06 | 0.12 (≈ 0.266 µM) | ≤ 0.0075 | 91.5 | 98.7 | ≤ 0.0075 | 0.5 (≈ 1.11 µM) | 8 (≈ 17.7 µM) | 0.015 (≈ 0.0332 µM) | 
2 | COc1ccc2ncc(F)c([C@@H](O)CC[C@@H]3CCN(CCSc4cccs4)C[C@@H]3C(=O)O)c2c1 [NXL-101] |  |  |  |  |  |  |  |  |  |  |  | QT prolongation (in words) [11]: causes QT prolongation
3 | COc1ccc2ncc(C#N)c(CCN3CCC(NCc4cc5c(cn4)OCS5)CC3)c2c1 [GSK299423] |  |  |  |  |  |  |  |  |  |  |  | hERG binding liability (in words) [12]: serious hERG binding liability
4 | COc1ccc2ncc(C#N)c(CCN3CCC(NCc4ccc(C)c([N+](=O)[O-])c4)CC3)c2c1 [VT-03-00061] | 0.015 (≈ 0.0326 µM) | 0.015 (≈ 0.0326 µM) | 0.12 (≈ 0.261 µM) | 0.25 (≈ 0.544 µM) | ≤ 0.0075 | 99.8 | 99.7 | 0.015 (≈ 0.0326 µM) | 1 (≈ 2.18 µM) | 8 (≈ 17.4 µM) | 0.015 (≈ 0.0326 µM) | MIC [13]: 2 µg/mL (≈ 4.35 µM); Mutation prevention concentration [14]: 0.12 µg/mL; oral bioavailability (in words) [15]: orally bioavailable; AUC(0-inf) [15, 28]: 368 ng·h/mL; Cmax [15, 28]: 400 ng/mL; half-life [15, 28]: 1.64 h; AUC(0-inf) [15, 29]: 104 ng·h/mL; Cmax [15, 29]: 51.5 ng/mL; half-life [15, 29]: 1.74 h; F % (Oral bioavaialbility) ([15]; oral 10 mg/kg vs intravenous 5 mg/kg): 11.51%; MIC [16]: 0.5 µg/mL (≈ 1.09 µM); MIC [17]: 2 µg/mL (≈ 4.35 µM); MIC [18]: 2 µg/mL (≈ 4.35 µM); survival [19]: 50%; IC50 [20]: > 30 µM
5 | COc1ccc2ncc(=O)n(CCN3CCC(NCc4csc([N+](=O)[O-])c4)CC3)c2c1 [VT-03-00057] | 0.5 (≈ 1.13 µM) | 0.25 (≈ 0.564 µM) | 0.5 (≈ 1.13 µM) | 2 (≈ 4.51 µM) | 0.25 (≈ 0.564 µM) | 61.4 | 90.6 | 0.12 (≈ 0.271 µM) | 2 (≈ 4.51 µM) | > 32 | 0.25 (≈ 0.564 µM) | MIC [13]: 8 µg/mL (≈ 18 µM); MIC [16]: 2 µg/mL (≈ 4.51 µM); MIC [17]: 16 µg/mL (≈ 36.1 µM); MIC [18]: 16 µg/mL (≈ 36.1 µM)
6 | COc1ccc2ncc(C#N)c(CCN3CCC(NCc4ccc([N+](=O)[O-])s4)CC3)c2c1 [VT-03-00052] | 1 (≈ 2.21 µM) | 0.25 (≈ 0.554 µM) |  | 4 (≈ 8.86 µM) | 0.25 (≈ 0.554 µM) |  |  | 0.125 (≈ 0.277 µM) | 16 (≈ 35.4 µM) |  | 0.25 (≈ 0.554 µM) | 
7 | Cc1ccc(CNC2CCN(CCn3c(=O)cnc4ccc(F)cc43)CC2)cc1F [VT-03-00122] |  |  |  |  |  |  |  |  |  |  |  | inhibition at 0.1 µM [21]: 95.5%; inhibition at 1 µM [21]: 97.1%; MIC [22]: 0.5 µg/mL (≈ 1.21 µM); AUC(0-t) ([15]; mouse, in vivo, iv, 5 mg/kg): 242 ng·h/mL; Cmax ([15]; mouse, in vivo, iv, 5 mg/kg): 381 ng/mL; Tmax ([15]; mouse, in vivo, iv, 5 mg/kg): 0.16 h; half-life ([15]; mouse, in vivo, iv, 5 mg/kg): 0.49 h; bioavailability ([15]; mouse, in vivo, oral 10 mg/kg vs i.v. 5 mg/kg): 7.69%; AUC(0-t) ([15]; mouse, in vivo, oral, 10 mg/kg): 37.3 ng·h/mL; Cmax ([15]; mouse, in vivo, oral, 10 mg/kg): 28.1 ng/mL; Tmax ([15]; mouse, in vivo, oral, 10 mg/kg): 1 h; MIC [23]: 0.25 µg/mL (≈ 0.606 µM); MIC ([8]; ATCC25922, Formula II compounds, read-out: Minimum Inhibitory Concentration (MIC) E. coli ATCC 25922): 0.25 µg/mL (≈ 0.606 µM); Mutation prevention concentration against A. baumannii [24]: 16 µg/mL; Mutation frequency ([24]; A. baumannii, at 8 μg/ml): 1.10 * 10^−8 at 8 μg/ml; MIC ([10]; Formula II compounds, read-out: Minimum Inhibitory Concentration (MIC) MRSA ATCC 33591): 0.06 µg/mL (≈ 0.145 µM); MIC [25]: 16 µg/mL (≈ 38.8 µM); IC50 [20]: > 30 µM
